According to patent US11667638B2, “4-substitued cytisine analogues” (The University of Bristol, priority 2016, dated 2023):

What was measured:
α4β2 nAChR = α4β2 nAChR (Homo sapiens (Human), UniProt P17787+P43681); type: binding; details: for Ratio α3β4/α4β2: ratio of Ki values
Protocol: (§1) HEK 293 cells were grown in Dulbecco's modified Eagle medium supplemented with 10% fetal bovine serum, 1% L-Glutamine, 100 units/ml penicillin G, and 100 μg/streptomycin in a humidified atmosphere containing 10% CO2. The cDNAs encoding α3 and β4 or α4 and β2 (were transfected into the HEK 293 cells at 30% confluency). The cell transfections were carried out in 100 mm Petri dishes using 30 μL of JetPEI™ (Polypus, France) (1 mg/ml, pH 7.2) and 3 μg of each cDNA. After 24 h transfection, the cells were collected, washed with PBS by centrifugation, and used for binding analysis.
(§2) [^3H]-epibatidine saturation binding experiments to HEK transfected α3β4 or α4β2 receptors were performed by means of overnight incubation at 4° C. at concentrations ranging from 0.005 to 1 nM in a buffer containing 50 mM Tris-HCl, pH 7, 150 mM NaCl, 5 mM KCl, 1 mM MgCl2, 2.5 mM CaCl2 and 2 mg/ml BSA, in the presence (aspecific binding) or absence (total binding) of 100 nM cold epibatidine. Specific ligand binding was defined as total binding minus the binding in the presence of 100 nM cold epibatidine.
(§3) After incubation, the membranes of HEK cells transfected with α4β2* or α3β4 subtypes were washed by filtration on GFC filters with ice-cold PBS. The GFC filters were pre-soaked in polyethylenimine and filtered through an harvester apparatus. [^3H]-epibatidine binding was determined by means of liquid scintillation counting in a beta counter.
(§4) The ligand binding data were analyzed by means of nonlinear regression using Prism version 5 (GraphPad Software, Inc., La Jolla, Calif.). The Ki values were calculated from the experimental IC50 values using the Cheng-Prusoff equation for a single population of competitive sites: Ki=IC50/[1+(L/Kd)], where L is the concentration of radioligand used in each experiment and the Kd values were determined by saturation binding experiment. All of the assays were performed in duplicate and repeated at least two-three times.

(α4)3(β2)2 nAChRs = (α4)3(β2)2 nAChRs (Homo sapiens (Human), UniProt P17787+P43681); assay: Maximal gating efficacy on (α4)3(β2)2 nAChRs in Xenopus oocytes, two electrode voltage clamp; type: cell-based; details: (α4)3(β2)2, low sensitivity stoichiometry; maximal current relative to 1 mM ACh
Protocol: (§5) Compounds of the invention were tested for effects on the function of human α4β2, α3β4 and α7 nicotinic acetylcholine receptors (nAChRs) expressed heterologously in Xenopus oocytes. […] Expression in oocytes was obtained as follows: pCI (Promega, UK) plasmid containing human α4, β2, β4 or α7 complementary DNA were injected as previously described (Moroni et al., 2006). To express (α4)3(β2)2 nACh receptors, a mixture of 10α4:1β2 cDNAs was injected into the nucleus of oocytes, whereas for (α4)2(β2)3 receptors the cDNA ratio injected was 1α4:10β2.
(§6) Functional studies: Recordings were performed manually using a Geneclamp amplifier (Molecular Devices, USA) or using an automated HiClamp system. In both cases the oocytes were impaled with two electrodes filled with 3 M KCl and the cells were held at −60 mV throughout the experiments.
(§7) Oocyte isolation and two-electrode voltage-clamp recordings on oocytes were carried out as previously described (Moroni et al., 2006; Carbone et al., 2009). […] A minimum interval of 5 min was allowed between agonist applications to ensure reproducible recordings. Oocytes were exposed to increasing concentrations of the compounds until no further increases in the response amplitude were obtained. This concentration was taken as the concentration that causes maximal responses on the receptors tested. The data summarised in Tables 1-4 were obtained from at least 5 experiments carried out on oocytes obtained from at least three different donors.
Maximal gating efficacy of the compounds: The concentration of the compounds of the invention causing maximal activation of the (α4)3(β2)2 nAChRs expressed heterologously in Xenopus oocytes was determined using two electrode voltage clamping.

(α4)2(β2)3 nAChRs = (α4)2(β2)3 nAChRs (Homo sapiens (Human), UniProt P17787+P43681); assay: Maximal gating efficacy on (α4)2(β2)3 nAChRs in Xenopus oocytes, two electrode voltage clamp; type: cell-based; details: (α4)2(β2)3, high sensitivity receptors; maximal current relative to 1 mM ACh
Protocol: as §5, §6, §7
Maximal gating efficacy of compounds on (α4)2(β2)3 receptors (high sensitivity receptors): The concentration of the compounds causing maximal activation of the (α4)2(β2)3 nAChRs expressed heterologously in Xenopus oocytes was determined using two electrode voltage clamping.

α3β4 nAChRs = α3β4 nAChRs (Homo sapiens (Human), UniProt P30926+P32297); assay: Maximal gating efficacy on α3β4 nAChRs in Xenopus oocytes, two electrode voltage clamp; type: cell-based; details: maximal current relative to 1 mM ACh
Protocol: as §5, §6, §7
Maximal gating efficacy of the compounds on α3β4 nAChRs: The concentration of the compounds causing maximal activation of α3β4 nAChRs expressed heterologously in Xenopus oocytes was determined using two electrode voltage clamping.

α7 nAChRs = α7 nAChRs (Homo sapiens (Human), UniProt P36544); type: cell-based; details: compounds at 100 μM, relative to 1 mM ACh
Protocol: as §5, §6, §7

α3β4 nAChR = α3β4 nAChR (Homo sapiens (Human), UniProt P30926+P32297); type: binding; details: human α3β4 in HEK 293, 0.5 nM [3H]-epibatidine; range printed after the value
Protocol: as §1, §2, §3, §4

Rat α7 = Rat α7 (Rattus norvegicus (Rat), UniProt Q05941); type: binding; details: range printed after the value
Protocol: as §4

Human α7 = Human α7 (Homo sapiens (Human), UniProt P36544); type: binding; details: read-out: Human α7 K(i)
Sequence of Human α7 (P36544 23-502 limits assumed): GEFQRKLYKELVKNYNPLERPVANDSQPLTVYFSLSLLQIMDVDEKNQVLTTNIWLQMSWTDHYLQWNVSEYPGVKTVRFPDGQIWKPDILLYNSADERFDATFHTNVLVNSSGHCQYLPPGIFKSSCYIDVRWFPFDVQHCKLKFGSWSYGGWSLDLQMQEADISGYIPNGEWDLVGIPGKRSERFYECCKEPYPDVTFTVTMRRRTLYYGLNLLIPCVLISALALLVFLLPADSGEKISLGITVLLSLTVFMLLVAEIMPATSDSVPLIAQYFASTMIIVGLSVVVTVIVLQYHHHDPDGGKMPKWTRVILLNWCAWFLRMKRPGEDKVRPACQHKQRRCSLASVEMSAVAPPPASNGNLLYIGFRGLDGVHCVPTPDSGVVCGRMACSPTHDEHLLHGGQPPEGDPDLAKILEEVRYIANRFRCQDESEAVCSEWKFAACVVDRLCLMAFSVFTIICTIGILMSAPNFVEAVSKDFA

Sequence of (α4)2(β2)3 nAChRs (P43681 29-627): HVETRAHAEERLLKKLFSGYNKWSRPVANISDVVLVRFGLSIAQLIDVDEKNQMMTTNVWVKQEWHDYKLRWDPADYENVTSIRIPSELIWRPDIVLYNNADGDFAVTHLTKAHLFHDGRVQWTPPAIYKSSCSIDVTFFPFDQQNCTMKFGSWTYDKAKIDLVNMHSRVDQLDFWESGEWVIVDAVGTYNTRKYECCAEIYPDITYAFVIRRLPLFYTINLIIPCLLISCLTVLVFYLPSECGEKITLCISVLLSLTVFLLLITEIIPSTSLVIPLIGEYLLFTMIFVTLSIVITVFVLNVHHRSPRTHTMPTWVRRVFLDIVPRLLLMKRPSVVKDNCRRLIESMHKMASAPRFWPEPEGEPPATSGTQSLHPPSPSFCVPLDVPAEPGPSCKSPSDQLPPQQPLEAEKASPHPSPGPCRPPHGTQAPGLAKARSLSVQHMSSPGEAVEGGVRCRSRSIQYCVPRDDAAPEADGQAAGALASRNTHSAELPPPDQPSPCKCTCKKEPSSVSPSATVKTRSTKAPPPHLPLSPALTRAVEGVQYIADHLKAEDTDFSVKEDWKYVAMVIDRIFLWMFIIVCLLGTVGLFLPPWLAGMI
Sequence of (α4)2(β2)3 nAChRs (P17787 26-502): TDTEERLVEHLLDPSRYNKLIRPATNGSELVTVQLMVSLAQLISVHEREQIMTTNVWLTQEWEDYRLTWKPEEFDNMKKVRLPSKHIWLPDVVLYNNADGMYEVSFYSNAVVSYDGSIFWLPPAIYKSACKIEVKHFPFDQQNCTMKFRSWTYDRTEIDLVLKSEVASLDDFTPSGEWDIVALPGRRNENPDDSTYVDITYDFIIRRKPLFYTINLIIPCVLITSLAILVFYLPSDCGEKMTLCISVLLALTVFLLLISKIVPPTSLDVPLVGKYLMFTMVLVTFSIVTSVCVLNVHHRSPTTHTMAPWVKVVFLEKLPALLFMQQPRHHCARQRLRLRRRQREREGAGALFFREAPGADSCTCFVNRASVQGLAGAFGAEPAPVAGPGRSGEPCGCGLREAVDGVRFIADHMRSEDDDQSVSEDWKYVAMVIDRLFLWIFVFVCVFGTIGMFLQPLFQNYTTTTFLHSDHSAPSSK
Sequence of α4β2 nAChR (P43681 29-627 limits assumed): as the sequence (P43681 29-627) above
Sequence of α4β2 nAChR (P17787 26-502 limits assumed): as the sequence (P17787 26-502) above
Sequence of (α4)3(β2)2 nAChRs (P43681 29-627): as the sequence (P43681 29-627) above
Sequence of (α4)3(β2)2 nAChRs (P17787 26-502): as the sequence (P17787 26-502) above
Sequence of α7 nAChRs (P36544 23-502): as the sequence (P36544 23-502 limits assumed) above
Sequence of α3β4 nAChRs (P32297 32-505): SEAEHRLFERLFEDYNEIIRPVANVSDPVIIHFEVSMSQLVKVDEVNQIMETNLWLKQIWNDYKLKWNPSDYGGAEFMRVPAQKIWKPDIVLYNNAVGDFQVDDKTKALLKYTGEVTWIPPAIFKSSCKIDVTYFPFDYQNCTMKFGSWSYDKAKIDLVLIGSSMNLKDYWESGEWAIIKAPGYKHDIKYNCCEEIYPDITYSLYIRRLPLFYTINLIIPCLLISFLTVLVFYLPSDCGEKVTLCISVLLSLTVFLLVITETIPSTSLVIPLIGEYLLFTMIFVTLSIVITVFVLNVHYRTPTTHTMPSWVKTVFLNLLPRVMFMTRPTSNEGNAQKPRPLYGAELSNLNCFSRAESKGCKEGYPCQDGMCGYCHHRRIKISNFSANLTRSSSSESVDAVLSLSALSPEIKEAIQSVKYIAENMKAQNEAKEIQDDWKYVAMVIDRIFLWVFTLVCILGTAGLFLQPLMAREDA
Sequence of α3β4 nAChRs (P30926 22-498): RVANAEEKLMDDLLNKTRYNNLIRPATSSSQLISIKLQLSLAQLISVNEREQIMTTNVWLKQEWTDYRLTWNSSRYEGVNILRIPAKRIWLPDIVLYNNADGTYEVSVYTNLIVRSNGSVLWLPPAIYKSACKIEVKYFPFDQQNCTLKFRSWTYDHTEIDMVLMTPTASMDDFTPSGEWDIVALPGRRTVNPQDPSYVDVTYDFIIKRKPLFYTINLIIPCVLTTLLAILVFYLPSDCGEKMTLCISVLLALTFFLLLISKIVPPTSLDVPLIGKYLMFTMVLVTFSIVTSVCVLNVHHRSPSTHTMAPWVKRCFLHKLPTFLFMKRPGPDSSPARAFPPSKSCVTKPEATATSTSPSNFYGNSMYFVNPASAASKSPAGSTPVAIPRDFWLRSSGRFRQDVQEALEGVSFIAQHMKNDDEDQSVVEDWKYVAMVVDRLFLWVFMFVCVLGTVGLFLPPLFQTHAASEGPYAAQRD
Sequence of α3β4 nAChR (P32297 32-505 limits assumed): as the sequence (P32297 32-505) above
Sequence of α3β4 nAChR (P30926 22-498 limits assumed): as the sequence (P30926 22-498) above
Sequence of Rat α7 (Q05941 23-502 limits assumed): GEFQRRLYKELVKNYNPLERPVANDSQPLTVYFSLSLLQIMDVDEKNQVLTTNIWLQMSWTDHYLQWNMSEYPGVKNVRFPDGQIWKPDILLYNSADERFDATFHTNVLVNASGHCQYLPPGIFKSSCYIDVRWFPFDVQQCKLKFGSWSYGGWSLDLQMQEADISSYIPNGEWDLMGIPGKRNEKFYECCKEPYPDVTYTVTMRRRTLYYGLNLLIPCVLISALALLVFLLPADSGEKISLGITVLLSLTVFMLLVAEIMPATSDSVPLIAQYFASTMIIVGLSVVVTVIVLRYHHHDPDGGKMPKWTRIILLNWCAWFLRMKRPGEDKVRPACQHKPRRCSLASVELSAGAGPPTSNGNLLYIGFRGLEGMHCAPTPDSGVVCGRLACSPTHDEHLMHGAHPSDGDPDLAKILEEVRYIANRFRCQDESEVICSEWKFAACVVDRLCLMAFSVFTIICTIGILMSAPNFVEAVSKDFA

Row | SMILES | Ratio α3β4/α4β2 (α4β2 nAChR) | Relative efficacy (ACh) ((α4)3(β2)2 nAChRs) | Relative efficacy (ACh) ((α4)2(β2)3 nAChRs) | Relative efficacy (ACh) (α3β4 nAChRs) | Relative efficacy (ACh) (α7 nAChRs) | Ki (α3β4 nAChR) [nM] | Ki (α4β2 nAChR; human α4β2 in HEK 293, 0.25 nM [3H]-epibatidine, range printed after the value) [nM] | Ki (Rat α7) [nM] | Ki (Human α7) [nM]
1 | Cl.O=c1cc(-c2c(F)c(F)c(F)c(F)c2F)cc2n1CC1CNC[C@@H]2C1 (single isomer, unassigned; (-)) [Compound 75, (−)4-(Perfluorophenyl)cytisine] | 8.1 | 0.011 ± 0.010 | 0.050 ± 0.071 | 0.120 ± 0.039 | 0.0007 ± 0.0006 | – | – | – | –
2 | O=c1cc(-c2ccccn2)cc2n1CC1CNC[C@@H]2C1 (single isomer, unassigned; (-)) [Compound 101, (−)4-(2-Pyridinyl)cytisine] | 1575.0 | 0.009 ± 0.008 | 0.0001 ± 0.00008 | 0.066 ± 0.056 | 0.16 ± 0.03 | – | – | – | –
3 | O=c1cc(-c2ccncc2)cc2n1CC1CNC[C@@H]2C1 (single isomer, unassigned; (-)) [Compound 103, (−)4-(4-Pyridinyl)cytisine] | 859.6 | 0.023 ± 0.006 | 0.0067 ± 0.0006 | 0.016 ± 0.010 | 0.07 ± 0.009 | – | – | – | –
4 | Cc1cc2n(c(=O)c1)CC1CNC[C@@H]2C1.Cl (single isomer, unassigned; (-)) [Compound 110, (−)4-Methylcytisine] | 864.3 | 0.014 ± 0.007 | 0.041 ± 0.004 | 0.0708 ± 0.059 | 0.0017 ± 0.0024 | – | – | – | –
5 | CCc1cc2n(c(=O)c1)CC1CNC[C@@H]2C1.Cl (single isomer, unassigned; (-)) [Compound 118, (−)4-Ethylcytisine] | 1901.3 | 0.036 ± 0.055 | 0.062 ± 0.025 | 0.086 ± 0.106 | 0.0057 ± 0.0028 | – | – | – | –
6 | Cl.O=c1cc(CO)cc2n1CC1CNC[C@@H]2C1 (single isomer, unassigned; (-)) [Compound 122, (−)4-(Hydroxymethyl)cytisine] | 73.0 | 0.058 ± 0.057 | 0.025 ± 0.000 | 0.015 ± 0.020 | 0.0067 ± 0.0015 | – | – | – | –
7 | C#Cc1cc2n(c(=O)c1)CC1CNC[C@@H]2C1.Cl (single isomer, unassigned; (-)) [Compound 127, (−)4-(acetylenyl)cytisine] | 710.5 | 0.071 ± 0.009 | 0.009 ± 0.0009 | 0.165 ± 0.064 | 0.17 ± 0.03 | – | – | – | –
8 | O=c1cccc2n1C[C@@H]1CNC[C@H]2C1 [Cytisine, cytisine] | 81.1 | 0.19 ± 0.07 | 0.02 ± 0.001 | 0.54 ± 0.01 | – | 103 | 1.27 | 662 | 691
